Article PMC6788984, “High-potency ligands for DREADD imaging and activation in rodents and monkeys” (Nature Communications, 2019)

Legend:
[1] = Radiometabolite analysis of [18F]JHU37107 in monkey plasma / whole blood (radio-HPLC); type: in vivo, rhesus monkey (Macaca mulatta)
Procedure: To determine the arterial input function for the radiotracers injected in rhesus monkeys radioligand concentrations in the arterial plasma were corrected by the unchanged parent fraction. […] Blood samples were immediately sampled for gamma counting, and plasma harvested by centrifugation for gamma counting and radio-HPLC analysis. The unchanged plasma parent fractions were determined by radio-HPLC on an X-terra® C18 column (10 µm, 7.8 mm × 300 mm, Waters Corp., Milford, MA), and eluted with MeOH:H2O:Et3N (80:20:0.1; by volume) at an isocratic flow rate of 4.0 mL min^−1. Eluates were monitored with an in-line flow-through NaI(Tl) scintillation detector (Bioscan). Data were stored and analyzed on a PC using the software “Bio-ChromeLite”. The collection of data for each radiochromatogram was decay corrected according to its respective HPLC injection time. Plasma free fraction was determined according to our previous methods.

[2] = target: T1, hM4Di (Homo sapiens, UniProt P08173, A203G/Y113C); assay: [18F]JHU37107 PET in rats expressing hM3Dq or hM4Di in the right motor cortex; type: in vivo, rat; set-up: expressed in transfected cells; host or cells: rat right motor cortex, AAV-transduced neurons; conditions: unilateral hM4Di in right motor cortex
T1 sequence (P08173 1-479 Y113C/A203G): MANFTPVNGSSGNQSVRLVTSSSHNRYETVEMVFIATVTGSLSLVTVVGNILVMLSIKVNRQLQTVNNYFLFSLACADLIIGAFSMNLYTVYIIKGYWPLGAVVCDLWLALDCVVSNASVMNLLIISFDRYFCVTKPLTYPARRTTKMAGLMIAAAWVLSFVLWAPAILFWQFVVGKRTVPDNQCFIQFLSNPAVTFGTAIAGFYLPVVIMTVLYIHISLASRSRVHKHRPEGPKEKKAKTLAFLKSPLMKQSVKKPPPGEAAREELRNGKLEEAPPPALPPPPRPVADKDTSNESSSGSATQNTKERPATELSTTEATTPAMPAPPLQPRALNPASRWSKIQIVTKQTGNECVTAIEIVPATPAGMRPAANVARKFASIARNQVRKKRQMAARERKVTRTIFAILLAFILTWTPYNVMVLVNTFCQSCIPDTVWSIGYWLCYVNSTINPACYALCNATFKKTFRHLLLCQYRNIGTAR
Procedure: [^18F]JHU37107 was prepared via the no-carrier-added ^18F-fluorination using an FDG Nuclear Interface module (Muenster, Germany). Briefly, 4 mg precursor (8-chloro-11-(4-ethylpiperazin-1-yl)-5H-dibenzo[b,e][1,4]diazepin-2-ol) and 8 mg tris(acetonitrile)cyclopentadienylruthenium(II)hexafluorophosphate (STREM, Boston, MA) were dissolved in ethanol (0.3 mL), the solution was heated at 85 °C for 25 min and evaporated to dryness under a stream of argon gas. The residue was dissolved in DMSO (0.5 mL) and acetonitrile (0.5 mL) and the solution was added to a dry complex of [^18F]fluoride and 9 mg 1,3-bis(2,6-di-i-propylphenyl)-2-chloroimidazolium chloride (STREM). The reaction mixture was heated at 130 °C for 30 min, diluted with mixture of 0.5 mL acetonitrile, 0.5 mL water and 0.03 mL TFA and injected onto a semi-preparative HPLC column (Luna C18, 10 micron, 10 mm × 250 mm) and eluted with 23:77 (v:v) acetonitrile:water (0.1% trifluoroacetic acid) at a flow rate of 10 mL min^−1. […] The final product [^18F]JHU37107 was then analyzed by analytical HPLC (Luna C18, 10 micron, 4.6 mm × 250 mm; mobile phase 23:77 (v:v) acetonitrile:water (0.1% trifluoroacetic acid), flow rate of 3 mL min^−1; tR = 6.4 min) using a UV detector at 254 nm to determine the radiochemical purity (>95%) and specific radioactivity (152–188 GBq μmol^−1 (4100–5070 mCi μmol^−1)) at the time synthesis ended. […]

[3] = target: T1, hM4Di; assay: [18F]JHU37107 PET in a monkey expressing hM4Di in the right amygdala; type: in vivo, rhesus monkey (Macaca mulatta); set-up: expressed in transfected cells; host or cells: rhesus monkey (Macaca mulatta) right amygdala, lentivirus-transduced neurons
Procedure: Lentivirus expressing an hM4Di-CFP fusion protein under an hSyn promoter[11] with a titer of >10^9 infectious particles was loaded into a 100 µL glass syringe (Hamilton Co., MA). The 31-gauge needle of the syringe was sheathed with a silica capillary (450 µm OD) to create a step 1 mm from the base of the aperture. The syringe was mounted in a Nanomite pump (Harvard Apparatus, Cambridge, MA). The needle was lowered through the incision in the dura mater to each of the pre-calculated target sites and 10 or 20 µL was infused at a rate of 1 µL min^−1. Each monkey received a total of between 10 and 12 injections (for a total injection volume of 120–240 µL). Post-infusion, the needle was left in situ for 10 min after each injection to allow pressure from the infusate to dissipate. The needle was then slowly removed. At the completion of the injection series the soft tissues were sutured together in anatomical layers.
[^18F]JHU37107 was prepared via the no-carrier-added ^18F-fluorination using an FDG Nuclear Interface module (Muenster, Germany). Briefly, 4 mg precursor (8-chloro-11-(4-ethylpiperazin-1-yl)-5H-dibenzo[b,e][1,4]diazepin-2-ol) and 8 mg tris(acetonitrile)cyclopentadienylruthenium(II)hexafluorophosphate (STREM, Boston, MA) were dissolved in ethanol (0.3 mL), the solution was heated at 85 °C for 25 min and evaporated to dryness under a stream of argon gas. The residue was dissolved in DMSO (0.5 mL) and acetonitrile (0.5 mL) and the solution was added to a dry complex of [^18F]fluoride and 9 mg 1,3-bis(2,6-di-i-propylphenyl)-2-chloroimidazolium chloride (STREM). The reaction mixture was heated at 130 °C for 30 min, diluted with mixture of 0.5 mL acetonitrile, 0.5 mL water and 0.03 mL TFA and injected onto a semi-preparative HPLC column (Luna C18, 10 micron, 10 mm × 250 mm) and eluted with 23:77 (v:v) acetonitrile:water (0.1% trifluoroacetic acid) at a flow rate of 10 mL min^−1. The radioactive peak corresponding to [^18F]JHU37107 (tR = 9.9 min) was collected in a reservoir containing 50 mL of water and 3 mL aq 8.4% NaHCO3 solution. The diluted product was loaded onto a solid phase extraction cartridge (Waters Oasis HLB plus light) and rinsed with 10 mL sterile saline. The product was eluted with 1000 µL of ethanol through a sterile 0.2 μm filter into a sterile, pyrogen-free vial and 10 mL saline was added through the same filter. The final product [^18F]JHU37107 was then analyzed by analytical HPLC (Luna C18, 10 micron, 4.6 mm × 250 mm; mobile phase 23:77 (v:v) acetonitrile:water (0.1% trifluoroacetic acid), flow rate of 3 mL min^−1; tR = 6.4 min) using a UV detector at 254 nm to determine the radiochemical purity (>95%) and specific radioactivity (152–188 GBq μmol^−1 (4100–5070 mCi μmol^−1)) at the time synthesis ended.
All macaque studies were acquired dynamically on the Focus 220 PET scanner (Siemens Medical Solutions, Knoxville, TN). The Focus 220 is a dedicated pre-clinical scanner with a transaxial FOV of 19 cm and an axial FOV of 7.5 cm. Image resolution is <2 mm within the central 5 cm FOV.
After initial evaluation the monkey was sedated with ketamine (10 mg kg^−1) followed by ketoprofen (as an analgesic) and glycopyrrolate (for salvia reduction), all weight dependent IM injections. The monkey would then be placed in the supine position, intubated with a tracheal tube. […] The monkey was always monitored while anesthetized. […]

## CCN1CCN(C2=Nc3cc(Cl)ccc3Nc3ccc([18F])cc32)CC1 [[^18F]JHU37107]
[1]; in vitro monkey whole blood, 30 min incubation at room temperature
  parent radioactivity composition of plasma: 49.7%
[1]; monkey plasma, 30 min after IV administration
  parent radioactivity composition of plasma: 56%
[1]; monkey plasma, 180 min after IV administration
  parent radioactivity composition of plasma: 24.2%
[2]
  PET visualization of hM4Di: permitted hM4Di visualization in both the AAV injection site as well as at known proximal and distal anatomical projection sites
[3]
  pharmacokinetic properties: favorable pharmacokinetic properties
[3]; hM4Di in right amygdala
  PET labelling of hM4Di: able to directly label hM4Di receptors
